Source: patent publication US11434205B2, “Substituted imidazole carboxylate derivatives and the use thereof” (priority 2018, dated 2022)
pEC50: −log10 of the molar value. Read-outs that look alike come from different tables or passages of the source.

Legend:
[1] = test system: rats; test: Loss of righting reflexes (LORR) assay in rats, ED50 by up and down method; assay type: in vivo, rat; conditions: Rattus norvegicus, tail vein, class symbols
Outline: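 Adult male Sprague-Dawley rats (250-300 g) dosed i.v. via tail vein at 0.1 mL/s. Anesthesia scored as loss of righting reflex lasting >30 s; ED50 derived by up-and-down method.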

[2] = test system: rats; test: Pharmacological characteristics at equivalent doses (2×ED50) in rats; conditions: 2×ED50, tail vein; for Adverse reactions: Red urine (incidence): DMSO solution (DMSO alone 10/10); for Onset time: time of LORR; for Adverse reactions: Tremor (incidence): animals affected/animals
Outline: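 Adult male Sprague-Dawley rats (250-300 g, n=8) received each drug at twice its ED50 via tail vein (0.6 mL at 0.1 mL/s). Onset of anesthesia taken as time to LORR.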

[3] = test system: rats; assay type: in vivo, rat; conditions: rats of the MAP/HR figures, 2×ED50, tail vein
[4] = test system: rats
Experimental: Adult male Sprague-Dawley rats (250-300 g) were selected for the experiment. […] The anesthesia effects of the compounds were assessed in rats using a LORR assay and a period >30 s was considered as an indicator of general anesthesia. Then the up and down method was used to determine 50% effective dose (ED50). The drugs were administered through the tail vein of rats in a volume of 0.6 mL and at a rate of 0.1 mL/s.

[5] = test system: rats; conditions: continuous tail vein infusion at 2×MIR, LORR maintained 1 hour, Table C4
Experimental: Pharmacological Effects of the Compounds on Continuous Infusion in Rats
Adult male Sprague-Dawley rats with body weight ranging from 250 to 300 gm were selected for continuous infusion test. […] Time to recovery of righting reflex from stopping infusion, and time to fully awake from stopping infusion were recorded.

[6] = test system: rats; assay type: in vivo, rat; conditions: rats of the MAP/HR figures, 2×ED50, tail vein; same value in min
Outline: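 Rats implanted with telemetry (left ventricular and abdominal aortic catheters, ECG leads) at least one week before recording; compounds given via lateral tail-vein catheter. MAP and HR sampled every 15 s for 30 min before and after dosing to judge hemodynamic stability.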

[7] = test system: secretion of cortisol, H295R cell line; test: cells; assay type: cell-based; conditions: for Cortisol as an indicator to determine the presence of inhibition: H295R, Table C3; for pEC50: Homo sapiens, NCI-H295R, read-out: EC50 (Cortisol)
Experimental: (§1) The Effects of the Compounds on Adrenocortical Function In Vitro Test
(§2) Then secretion of the cortisol and corticosterone in the supernatant, was measured using HPLC-MS/MS method to determine whether the compounds of the present invention had adrenotoxic potential.

[8] = test system: secretion of corticosterone, H295R cell line; test: cells; assay type: cell-based; conditions: for Corticosterone as an indicator to determine the presence of inhibition: H295R, Table C3; for pEC50: Homo sapiens, NCI-H295R, read-out: EC50 (Corticosterone)
Experimental: as §1, §2

Compound | ED50 [1] | Adverse reactions: Muscle twitching (incidence) [2] | Righting reflex duration [2] | Adverse reactions: Red urine (incidence) [2] | Onset time [2] | recovery time of the test animals' righting reflex [3] | Approximate therapeutic index [4] | Minimal lethal dose [4] | Onset time [5] | Recovery time after stopping infusion [5] | Types and incidence of adverse reactions [5] | recovery time of the test animals' righting reflex [6] | Cortisol as an indicator to determine the presence of inhibition [7] | pEC50 [7] | Corticosterone as an indicator to determine the presence of inhibition [8] | pEC50 [8] | Adverse reactions: Tremor (incidence) [2] | Adverse reactions: Convulsions (incidence) [2]
CC(=O)CCOC(=O)c1cncn1[C@H](C)c1ccccc1 [Compound C7] | 0.1 to 0.5 mg/kg | Muscle twitching (4/8), | 1.68 ± 0.88 min | Red urine (8/8) | 0.15 ± 0.06 min | 112 s | >10 | >4 mg/kg | 3 to 4 min | 8 to 14 min | Tremor (6/6) | 1.87 min | 0 | < 6.00 | 0 | < 6.00 |  | 
C[C@H](c1ccccc1)n1cncc1C(=O)OC(C)(C)C [Compound C18] | 0.1 to 0.5 mg/kg |  | 1.96 ± 1.39 min | (8/8) | 0.25 ± 0.13 min | 115 s | >14 | >5 mg/kg | 3 to 4 min | 10 to 14 min | Tremor (1/6) | 1.92 min | 0 | < 6.00 | 0 | < 6.00 | Tremor (5/8), Red urine | 
CCCC(CCC)OC(=O)c1cncn1[C@H](C)c1ccccc1 [Compound C20] | 0.1 to 0.5 mg/kg |  | 3.59 ± 2.63 min | (8/8) | 0.43 ± 0.07 min | 243 s | >16 | >7 mg/kg | 3 to 4 min | 8 to 15 min | Tremor (3/6), Myoclonus (1/6) | 4.05 min | 0 | < 5.00 | 0 | < 5.00 | Tremor (2/8), Red urine | 
CCC(CC)OC(=O)c1cncn1[C@H](C)c1ccccc1 [Compound C24] | 0.01 to 0.1 mg/kg |  | 2.21 ± 1.28 min | urine (8/8) | 0.49 ± 0.15 min | 135 s | >11 | >1 mg/kg | 3 to 4 min | 9 to 13 min | Tremor (1/6) | 2.25 min | 0 | < 6.00 | 0 | < 6.00 |  | Convulsions (1/8), Red
CCCCC(CCCC)OC(=O)c1cncn1[C@H](C)c1ccccc1 [Compound C25] | 0.1 to 0.5 mg/kg |  | 2.03 ± 1.32 min | (8/8) | 0.72 ± 0.20 min | 125 s | >10 | >4 mg/kg | 3 to 4 min | 12 to 15 min |  | 2.08 min | 0 | < 6.00 | 0 | < 6.00 | Tremor (6/8), Red urine | 
CSCOC(=O)c1cncn1[C@H](C)c1ccccc1 [Compound C26] | 0.5 to 1 mg/kg | Muscle twitching (1/8), | 2.11 ± 1.02 min | Red urine (8/8) | 0.30 ± 0.09 min | 137 s | >11 | >6 mg/kg | 2 to 3 min | 9 to 13 min | Tremor (2/6) | 2.28 min | 0 | < 5.00 | 0 | < 5.00 |  | 
CSCCOC(=O)c1cncn1[C@H](C)c1ccccc1 [Compound C27] | 0.5 to 1 mg/kg |  | 3.06 ± 1.50 min | Red urine (8/8) | 0.12 ± 0.07 min | 186 s | >11 | >9 mg/kg | 3 to 4 min | 10 to 11 min | Tremor (2/6) | 3.1 min | 0 | < 6.00 | 0 | < 6.00 |  | 
